Test results: the supplement of paper PMC4862054

test system: CAL-120; assay: normalised response (% of control), CellTox Green; higher = less cell death (100 = DMSO, 0 = benzethonium chloride kill control); conditions: incubation time: 72 h
In short: (§1)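 A 20 µl suspension of breast cancer cells was seeded into each well of 384-well plates containing compound at 5 concentrations in 10-fold steps over a compound-specific 10,000-fold range. After 72 h incubation, CellTox Green fluorescence (485/520 nm) was read first, and CellTiter-Glo luminescence was read after 10 min at room temperature. Each plate was normalised against 0.1 % DMSO (100) and a positive kill control (0), and each value is the normalised signal at one concentration.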

SMILES	normalised response
O=C(O)CCCCC(CCSCc1ccccc1)SCc1ccccc1 (stereo not given) [CPI-613] (100 nM)	102%
Nc1nc2[nH]cc(CCc3ccc(C(=O)N[C@@H](CCC(=O)O)C(=O)O)cc3)c2c(=O)[nH]1 [Pemetrexed] (100 nM)	98%
Cc1cnc(NC(=O)Nc2cc(Br)c(C)cc2OC[C@@H]2CNCCO2)cn1 [Rabusertib] (10 nM)	102%
CCCCC(=O)OCC(=O)[C@]1(O)Cc2c(O)c3c(c(O)c2[C@@H](O[C@H]2C[C@H](NC(=O)C(F)(F)F)[C@H](O)[C@H](C)O2)C1)C(=O)c1c(OC)cccc1C3=O [Valrubicin] (50 nM)	111%
N#Cc1ccc(C(c2ccc(C#N)cc2)n2cncn2)cc1 [Letrozole] (100 nM)	91.1%
CCCS(=O)(=O)Nc1ccc(F)c(C(=O)c2c[nH]c3ncc(-c4ccc(Cl)cc4)cc23)c1F [Vemurafenib] (100 nM)	97.7%
CC[C@H](Nc1ncnc2[nH]cnc12)c1nc2cccc(F)c2c(=O)n1-c1ccccc1 [GS-1101] (100 nM)	102%
CC(=O)Nc1cccc(-n2c(=O)n(C3CC3)c(=O)c3c(Nc4ccc(I)cc4F)n(C)c(=O)c(C)c32)c1 [Trametinib] (2.5 nM)	96.3%
Nc1ccccc1NC(=O)c1ccc(CNC(=O)OCc2cccnc2)cc1 [Entinostat] (100 nM)	97.4%

test system: MDA-MB-468; assay: as above; conditions: incubation time: 72 h
In short: as §1

SMILES	normalised response
O=C(O)CCCCC(CCSCc1ccccc1)SCc1ccccc1 (stereo not given) [CPI-613] (100 nM)	122%
Nc1nc2[nH]cc(CCc3ccc(C(=O)N[C@@H](CCC(=O)O)C(=O)O)cc3)c2c(=O)[nH]1 [Pemetrexed] (100 nM)	93%
Cc1cnc(NC(=O)Nc2cc(Br)c(C)cc2OC[C@@H]2CNCCO2)cn1 [Rabusertib] (10 nM)	89.4%
CCCCC(=O)OCC(=O)[C@]1(O)Cc2c(O)c3c(c(O)c2[C@@H](O[C@H]2C[C@H](NC(=O)C(F)(F)F)[C@H](O)[C@H](C)O2)C1)C(=O)c1c(OC)cccc1C3=O [Valrubicin] (50 nM)	152%
CCCS(=O)(=O)Nc1ccc(F)c(C(=O)c2c[nH]c3ncc(-c4ccc(Cl)cc4)cc23)c1F [Vemurafenib] (100 nM)	98.4%
CC[C@H](Nc1ncnc2[nH]cnc12)c1nc2cccc(F)c2c(=O)n1-c1ccccc1 [GS-1101] (100 nM)	103%
CC(=O)Nc1cccc(-n2c(=O)n(C3CC3)c(=O)c3c(Nc4ccc(I)cc4F)n(C)c(=O)c(C)c32)c1 [Trametinib] (2.5 nM)	120%
Nc1ccccc1NC(=O)c1ccc(CNC(=O)OCc2cccnc2)cc1 [Entinostat] (100 nM)	105%

test system: MDA-MB-453; assay: as above; conditions: incubation time: 72 h
In short: as §1

SMILES	normalised response
O=C(O)CCCCC(CCSCc1ccccc1)SCc1ccccc1 (stereo not given) [CPI-613] (100 nM)	101%
Nc1nc2[nH]cc(CCc3ccc(C(=O)N[C@@H](CCC(=O)O)C(=O)O)cc3)c2c(=O)[nH]1 [Pemetrexed] (100 nM)	104%
Cc1cnc(NC(=O)Nc2cc(Br)c(C)cc2OC[C@@H]2CNCCO2)cn1 [Rabusertib] (10 nM)	106%
CCCCC(=O)OCC(=O)[C@]1(O)Cc2c(O)c3c(c(O)c2[C@@H](O[C@H]2C[C@H](NC(=O)C(F)(F)F)[C@H](O)[C@H](C)O2)C1)C(=O)c1c(OC)cccc1C3=O [Valrubicin] (50 nM)	108%
N#Cc1ccc(C(c2ccc(C#N)cc2)n2cncn2)cc1 [Letrozole] (100 nM)	100%
CCCS(=O)(=O)Nc1ccc(F)c(C(=O)c2c[nH]c3ncc(-c4ccc(Cl)cc4)cc23)c1F [Vemurafenib] (100 nM)	97.9%
CC[C@H](Nc1ncnc2[nH]cnc12)c1nc2cccc(F)c2c(=O)n1-c1ccccc1 [GS-1101] (100 nM)	100%
CC(=O)Nc1cccc(-n2c(=O)n(C3CC3)c(=O)c3c(Nc4ccc(I)cc4F)n(C)c(=O)c(C)c32)c1 [Trametinib] (2.5 nM)	103%
Nc1ccccc1NC(=O)c1ccc(CNC(=O)OCc2cccnc2)cc1 [Entinostat] (100 nM)	101%

test system: BT-474; assay: as above; conditions: incubation time: 72 h
In short: as §1

SMILES	normalised response
O=C(O)CCCCC(CCSCc1ccccc1)SCc1ccccc1 (stereo not given) [CPI-613] (100 nM)	93.3%
Nc1nc2[nH]cc(CCc3ccc(C(=O)N[C@@H](CCC(=O)O)C(=O)O)cc3)c2c(=O)[nH]1 [Pemetrexed] (100 nM)	96.2%
Cc1cnc(NC(=O)Nc2cc(Br)c(C)cc2OC[C@@H]2CNCCO2)cn1 [Rabusertib] (10 nM)	102%
CCCCC(=O)OCC(=O)[C@]1(O)Cc2c(O)c3c(c(O)c2[C@@H](O[C@H]2C[C@H](NC(=O)C(F)(F)F)[C@H](O)[C@H](C)O2)C1)C(=O)c1c(OC)cccc1C3=O [Valrubicin] (50 nM)	103%
N#Cc1ccc(C(c2ccc(C#N)cc2)n2cncn2)cc1 [Letrozole] (100 nM)	93.5%
CCCS(=O)(=O)Nc1ccc(F)c(C(=O)c2c[nH]c3ncc(-c4ccc(Cl)cc4)cc23)c1F [Vemurafenib] (100 nM)	98.3%
CC[C@H](Nc1ncnc2[nH]cnc12)c1nc2cccc(F)c2c(=O)n1-c1ccccc1 [GS-1101] (100 nM)	93%
CC(=O)Nc1cccc(-n2c(=O)n(C3CC3)c(=O)c3c(Nc4ccc(I)cc4F)n(C)c(=O)c(C)c32)c1 [Trametinib] (2.5 nM)	100%
Nc1ccccc1NC(=O)c1ccc(CNC(=O)OCc2cccnc2)cc1 [Entinostat] (100 nM)	100%

test system: MFM-223; assay: as above; conditions: incubation time: 72 h
In short: as §1

SMILES	normalised response
O=C(O)CCCCC(CCSCc1ccccc1)SCc1ccccc1 (stereo not given) [CPI-613] (100 nM)	64.3%
Nc1nc2[nH]cc(CCc3ccc(C(=O)N[C@@H](CCC(=O)O)C(=O)O)cc3)c2c(=O)[nH]1 [Pemetrexed] (100 nM)	90.4%
Cc1cnc(NC(=O)Nc2cc(Br)c(C)cc2OC[C@@H]2CNCCO2)cn1 [Rabusertib] (10 nM)	109%
CCCCC(=O)OCC(=O)[C@]1(O)Cc2c(O)c3c(c(O)c2[C@@H](O[C@H]2C[C@H](NC(=O)C(F)(F)F)[C@H](O)[C@H](C)O2)C1)C(=O)c1c(OC)cccc1C3=O [Valrubicin] (50 nM)	108%
N#Cc1ccc(C(c2ccc(C#N)cc2)n2cncn2)cc1 [Letrozole] (100 nM)	94.5%
